Measured values as given in patent publication US8003136B2, “Standardization of botanical products utilizing biological activity as a marker” (priority 2004, dated 2011).
Values after ≈ are worked out from the molar mass of the structure shown. Read-outs that look alike come from different tables or passages of the source.

Experiments:
Giardia = conditions: three divided doses for 6 days; berberine 5 mg/kg/day, metronidazole 10 mg/kg/day; cited from earlier work
Giardiasis = conditions: berberine 10 mg/kg/day for 10 days; metronidazole 20 mg/kg/day for 5-7 days; cited from earlier work
E. coli strain ORN178 = test: MIC and MBC against E. coli strain ORN178; format: cell-based; conditions: for concentration determined to be non-inhibitory (up to): inhibitor alone
Method: Minimum inhibition concentration (MIC) will be tested in appropriate liquid media in 96-well microtiter plates. Each well contains 5×10^5 CFU/ml of test bacteria, serially diluted extracts and medium. In some cases when chemical solvents are used, it will be tested simultaneously with the test compounds to ensure the absence of antimicrobial activity. Triplicate samples are to be performed.
After 10 min at 37° C., the treated bacterial (or fungal) culture will be diluted and viable colony counts determined. The ability of goldenseal extract in killing test organisms will be elucidated.
Antimicrobial Characteristics of Goldenseal: Antimicrobial activities of SHF NOP certified Hydrastis were evaluated and compared to that of pure chemical berberine sulfate and berberine chloride. […] The synergistic effects of berberine with the known MDR pump inhibitor (reserpine and orthovanadate) as well as Hydrastis root extracts with leaf extracts were also determined. Please refer to the Materials and Methods section for detailed protocol. All extracts were lyophilized and reconstituted in H2O.

SA-1199B = test: MIC against Staph. strain SA-1199B (over expresses NorA MDR efflux protein); format: cell-based
Source text: (§1) Additional preliminary data regarding the potential synergistic activity of Hydrastis leaf on two Staph. strains SA-1199B and SA-K2068 was developed using Hydrastis extracts. […]

SA-K2068 = test: MIC against Staph. strain SA-K2068 (MDR efflux pump distinct from NorA); format: cell-based
Source text: as §1

[1] = system: Human gastric adenocarcinoma (AGS) cells; test: growth reduction of AGS cells; format: cell-based
Source text: Hydrastis leaf extract produced activity slightly less than the control or root extract but contained one fifth of the berberine indicating synergistic and/or additive compounds exist in the leaf. Antineoplastic—Cancer Cell Cultures. This assay measures the ability of Hydrastis to stimulate or arrest metabolic activity of tumor cells. Human gastric adenocarcinoma (AGS), CaCo2 colon cancer cells and normal colon epithelial tissue (ATCC) will be grown in Petri plates on Dulbecco's Modified Eagle Medium (DME) with 4 mM L-glutamine, 4.5 g/l glucose and 10% fetal bovine serum. CRL 7368 Breast Cancer cells and CRL 7367 Fibroblast control cells will be grown in Petri plates on DME with 4 mM L-glutamine, 4.5 g/l glucose, 1.5 g/l sodium bicarbonate and 10% fetal bovine serum. A 95% confluent layer of healthy cells will be divided as follows: surface media will be poured from the plates so that the cells are not dislodged. Ten milliliters of sterile phosphate-buffered saline (PBS) will be added to the plates to rinse the cell layer and then discarded. […] Cellular release by the trypsin is indicated when the cell layer moves when the plate is tilted. Dislodged cells will be added to 15 ml sterile tubes containing 1 ml calf serum. […] The cellular pellet is suspended in 5 ml of medium by mixing. A cell suspension aliquot (0.1 ml) is added to 0.9 ml of 0.4% Trypan Blue and mixed. Cell counts will be made using a hemocytometer charged with the cell suspension. Aliquots of the cell suspension (based on cell count) will be added to Petri plates, then 15 ml of media will be added and the plates incubated at 37° C. in a CO2 incubator. Cells will be checked daily for contamination and morphology. Media will be replaced every 2 to 3 days with fresh medium. The Cell Titer 96® AQueous Non-radioactive Cell proliferation Assay manufactured by Promega, is a colorimetric method used to measure dehydrogenase activity found in metabolically active cells. The MTS is reduced to formazan in the presence of metabolically active cells and the absorbance of formazan is measured spectrophotometrically. Two days post subculture, cells will be rinsed twice with respective media, harvested, and the cell concentration adjusted to 1×10^5 cells/ml. Fifty μl of the cell suspension will be added to the individual wells of a 96-well microtiter plate. Each well will contain 50 μl of the test sample (extract) or standard reference drug. Plates will be incubated for 48 to 72 hr at 37° C. in a CO2 incubator. After incubation, 20 μl of MTS/PMS solution will be added, and the plates incubated for an additional 1 to 4 hr. At the end of the incubation period, absorbance will be recorded at 490 nm.

[2] = system: 15 strains of Helicobacter pylori; conditions: Mahady, 2003; cited from earlier work
[3] = system: McF7, a breast epithelial cell line; test: MTS cell proliferation assay, McF7; format: cell-based
Source text: Another study at Clemson examined the anti-tumor properties of berberine when combined with pump inhibitory characteristics of leaf extracts from Hydrastis. This combination inhibited proliferation of both CaCo2, a colon epithelial cell line, and McF7, a breast epithelial cell line. […] Anti-tumor properties block uncontrolled growth, while pump inhibitory properties aid in lowering the dosage of drugs needed to treat the patient. MTS assay was used to measure cell proliferation. Cell proliferation of McF7 was reduced to 45% of the control when treated with 2% of berberine. […] However, a synergetic effect was observed when combining 0.5% berberine with 1.5% leaf extract. Proliferation of McF7 was reduced to 59% compared to the untreated cells. The Cell Titer 96® AQueous Non-radioactive Cell proliferation Assay manufactured by Promega, is a colorimetric method used to measure dehydrogenase activity found in metabolically active cells. The MTS is reduced to formazan in the presence of metabolically active cells and the absorbance of formazan is measured spectrophotometrically. Two days post subculture, cells will be rinsed twice with respective media, harvested, and the cell concentration adjusted to 1×10^5 cells/ml. Fifty μl of the cell suspension will be added to the individual wells of a 96-well microtiter plate. […] At the end of the incubation period, absorbance will be recorded at 490 nm.

[4] = system: CaCo2, a colon epithelial cell line; test: MTS cell proliferation assay, CaCo2; format: cell-based
Method: Another study at Clemson examined the anti-tumor properties of berberine when combined with pump inhibitory characteristics of leaf extracts from Hydrastis. […] Anti-tumor properties block uncontrolled growth, while pump inhibitory properties aid in lowering the dosage of drugs needed to treat the patient.
MTS assay was used to measure cell proliferation.
The MTS is reduced to formazan in the presence of metabolically active cells and the absorbance of formazan is measured spectrophotometrically. Two days post subculture, cells will be rinsed twice with respective media, harvested, and the cell concentration adjusted to 1×10^5 cells/ml. Fifty μl of the cell suspension will be added to the individual wells of a 96-well microtiter plate. Each well will contain 50 μl of the test sample (extract) or standard reference drug. Plates will be incubated for 48 to 72 hr at 37° C. in a CO2 incubator. After incubation, 20 μl of MTS/PMS solution will be added, and the plates incubated for an additional 1 to 4 hr. At the end of the incubation period, absorbance will be recorded at 490 nm.

Streptococcus mutans = conditions: Hwang (2003); cited from earlier work
[5] = system: human gastric carcinoma SNU-5 cells; conditions: SNU-5 cell line; cited from earlier work
[6] = system: HT-1080 (human fibrosarcoma); conditions: cited from earlier work
[7] = system: SNU-638 (human stomach adenocarcinoma); conditions: cited from earlier work
human tumour HeLa = conditions: cited from earlier work
murine leukemia L1210 = conditions: cited from earlier work
transplanted B16 line = conditions: day 16, doses of 5 and 10 mg/kg; cited from earlier work
[8] = system: COX-2 transcriptional activity in human colon cancer cells; conditions: dose- and time-dependent; cited from earlier work
hepatoma HepG2 cells = conditions: cited from earlier work
[9] = system: Chang (normal) liver cells; conditions: cited from earlier work
[10] = oral, 32 patients, 3 months; cited from earlier work
[11] = hyperlipidemic hamsters; cited from earlier work
[12] = in 2.5 hrs; cited from earlier work
[13] = system: Bifidobacterium adolescentis, Lactobacillus acidophilus, and Lactobacillus casei; conditions: cited from earlier work
[14] = 10 μg/ml of reserpine or 2 mM of orthovanadate supplemented

Cc1ncc([N+](=O)[O-])n1CCO [metronidazole]
subjects Giardia-free upon stool analysis (Giardia): All | subjects asymptomatic / resolution of symptoms (Giardia): 33% | negative stool specimens after 10 days (Giardiasis): 95% | remained negative one month later (Giardiasis): 90%

[O]=[V]([O-])([O-])[O-] [orthovanadate]
concentration determined to be non-inhibitory (up to) (E. coli strain ORN178): ≤ 4 mM

O=C(O)c1cn(C2CC2)c2cc(N3CCNCC3)c(F)cc2c1=O [Ciprofloxacin]
MIC (SA-1199B; +312.5 μg/mL leaf ext.): 2 µg/mL | MIC (SA-1199B; +625 μg/mL leaf ext.): 2 µg/mL | MIC (SA-1199B; +1250 μg/mL leaf ext.): < 0.5 µg/mL | MIC (SA-1199B; +5~20 μg/mL Reserpine): 1 µg/mL | MIC (SA-1199B; agent alone): 8 µg/mL | MIC (SA-K2068; read-out: SA K2068 MIC, +312.5 μg/mL leaf ext.): 0.5 µg/mL | MIC (SA-K2068; read-out: SA K2068 MIC, +625 μg/mL leaf ext.): 0.5 µg/mL | MIC (SA-K2068; read-out: SA K2068 MIC, +5~20 μg/mL Reserpine): 0.5 µg/mL | MIC (SA-K2068; read-out: SA K2068 MIC, agent alone): 4 µg/mL

COc1ccc2cc3[n+](cc2c1OC)CCc1cc2c(cc1-3)OCO2 [Berberine chloride]
% growth reduction of AGS cells ([1]; first volume column, unit μl, berberine chloride control 500 μg/ml): .7% | % growth reduction of AGS cells ([1]; fourth volume column, unit μl): 2.6% | % growth reduction of AGS cells ([1]; head printed '0 μl'): 4.2% | % growth reduction of AGS cells ([1]; head printed '6 μl'): 2.1% | % growth reduction of AGS cells ([1]; second volume column, unit μl): .5% | % growth reduction of AGS cells ([1]; third volume column, unit μl): 3.7%

COc1ccc2c(c1OC)C(=O)O[C@@H]2[C@H]1c2cc3c(cc2CCN1C)OCO3 [beta-hydrastine]
MIC50 [2]: 100.0 µg/mL (≈ 261 µM)

COC(=O)[C@H]1[C@H]2C[C@@H]3c4[nH]c5cc(OC)ccc5c4CCN3C[C@H]2C[C@@H](OC(=O)c2cc(OC)c(OC)c(OC)c2)[C@@H]1OC [reserpine]
concentration determined to be non-inhibitory (up to) (E. coli strain ORN178): Up to 5000 μg/ml

COc1ccc2cc3[n+](cc2c1OC)CCc1cc2c(cc1-3)OCO2 [berberine]
MBC of berberine reduced to (E. coli strain ORN178; [14]): ¼ | MIC of berberine reduced by (E. coli strain ORN178; [14]): half | MBC (E. coli strain ORN178; Escherichia coli, ORN178, berberine alone, read-out: MBC (μg/ml berberine)): 125 µg/mL | MIC (E. coli strain ORN178; Escherichia coli, ORN178, berberine alone, read-out: MIC (μg/ml berberine)): 62.5 µg/mL | Proliferation of McF7 compared to the untreated cells ([3]; 0.5% berberine combined with 1.5% leaf extract): 59% | Cell proliferation of McF7, % of the control ([3]; treated at a concentration of 2%): 45% | cell proliferation rate, CaCo2 ([4]; combination of 0.5% berberine and 0.5% leaf extract): 48% | cell proliferation, CaCo2 ([4]; treated with 0.5%): 75% | Minimum Inhibitory Concentration (MIC) (Streptococcus mutans): 125 µg/mL | MIC50 [2]: 12.5 µg/mL | subjects Giardia-free upon stool analysis (Giardia): 68% | subjects asymptomatic / resolution of symptoms (Giardia): 48% | negative stool specimens after 10 days (Giardiasis): Ninety | remained negative one month later (Giardiasis): 83% | IC50 [5]: 48 µM | IC50 [6]: 3.2 µg/mL | IC50 [7]: 3.4 µg/mL | IC50 (human tumour HeLa; Jantova, 2003): less than 4 microg mL(−1) | IC50 (human tumour HeLa; Kettman, 2004): less than 4 microg/ml | IC50 (murine leukemia L1210; Jantova, 2003): less than 4 microg mL(−1) | IC50 (murine leukemia L1210; Kettman, 2004): less than 4 microg/ml | tumor volume (transplanted B16 line): significant reduction | concentrations that inhibit COX-2 transcriptional activity [8]: higher than 0.3 microM | cytotoxicity (hepatoma HepG2 cells): significant cytotoxicity | cytotoxicity [9]: ineffective | reduction of LDL-cholesterol [10]: 25% | reduction of serum cholesterol [10]: 29% | reduction of triglycerides [10]: 35% | increase in hepatic LDLR mRNA [11]: 3.5 fold | increase in hepatic LDLR protein [11]: 2.6 fold | reduction of LDL-cholesterol [11]: 42% | reduction of serum cholesterol [11]: 40% | absorbed in the intestine [12]: less than 5% | inhibition of "friendly" bacteria [13]: weak or no inhibition
